For seven compounds, EC50 and Emax results are on record in patent publication US9023986B2, “Glucose-dependent insulinotropic peptide analogs” (Hoffmann-La Roche Inc., priority 2010, dated 2015).

The assay deals with T1, human GIPR (Homo sapiens, UniProt P48546).
T1 construct: host or cells: CHO-K1
T1 sequence (P48546 22-466): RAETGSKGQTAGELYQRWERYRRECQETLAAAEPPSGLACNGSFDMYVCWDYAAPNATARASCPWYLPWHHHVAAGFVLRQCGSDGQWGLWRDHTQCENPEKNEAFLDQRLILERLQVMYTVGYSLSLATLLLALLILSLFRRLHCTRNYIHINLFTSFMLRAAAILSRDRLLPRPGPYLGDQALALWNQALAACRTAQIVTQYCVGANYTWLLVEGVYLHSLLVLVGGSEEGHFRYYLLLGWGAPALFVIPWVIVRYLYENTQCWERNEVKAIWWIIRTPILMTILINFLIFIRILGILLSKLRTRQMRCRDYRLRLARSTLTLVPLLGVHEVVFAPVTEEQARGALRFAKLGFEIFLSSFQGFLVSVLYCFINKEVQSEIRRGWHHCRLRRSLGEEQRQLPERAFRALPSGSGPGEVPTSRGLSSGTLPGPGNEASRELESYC
The assay can be described thus: cAMP production in CHO-K1 cells expressing human GIPR (LANCE cAMP assay). The assay is classed as cell-based. To be noted: for Emax: CHO-K1, read-out: % activation of cAMP (maximal stimulation). The method, then:
CHO—K1 cells expressing human GIPR were obtained from DiscoverX Corporation (Fremont, Calif.). The cells were cultured in Ham's F-12 nutrient media supplemented with 10% foetal bovine serum, 800 μg/ml geneticin, 300 μg/ml hydromycin, 2 mM L-glutamine, and Penicillin-streptomycin (100 units, 100 μg) at 37° C. in a 5% CO2 incubator. The cells were harvested at 90% confluence.
The cells were suspended in Ham's F-12 nutrient media to a concentration of 200,000 cells/ml. The cells were then plated in a 384 well plate at with […] of the suspension added per well. The cells were incubated overnight at 37° C. in a 5% CO2 incubator.
The activity of the compounds was determined by stimulating the CHO—K1 cells with the test compound, and measuring the levels of cAMP produced. The activity of the compounds was compared to the activity of native GIP, as GIP stimulates cAMP production. 6 μl of the test compound in stimulation buffer (990 ml Hank's Balanced Salt solution (HBSS) (1×) (Invitrogen Corp #14025-092), 10 ml Hepes buffer solution (1 mol·L) (Invitrogen Corp 15630-080), 1 g BSA (final 0.1%), and 1 ml IBMX 250 mM stock prepared fresh in DMSO (Sigma-Aldrich 15879)) were added to cells, followed by 6 μl of Alexa Fluor® 647-anti cAMP antibody (Perkin Elmer) in stimulation buffer. […] The well plate was centrifuged for 3 min at 300 rpm, and incubated at room temperature for 45 minutes. 12 μl of detection mixture (biotin cAMP and EUW8044 labeled streptavidin (Eu-SA) in cAMP Detection Buffer (Perkin Elmer)) was added and incubated for 60 min at room temperature.
The levels of cAMP produced were measured according to the detailed protocol outlined in the Perkin Elmer LANCE cAMP Assay Perkin Elmer Lance cAMP Kit manual. The activity of the compounds was compared to the activity of native GIP.
The plates are read on a TRF detection instrument, EnVision® (Perkin Elmer) (excitation at 340 nm and emission at 665 nm). The values of the cAMP signal are obtained from the standard cAMP curve and used to determine the amount of maximal stimulation, and EC50 for stimulating the cAMP signal.
Background: cAMP levels reflect the balance of adenylyl cyclase and phosphodiesterase activity.

One may read the EC50 as the concentration needed to bring the measured effect to its halfway point. For `CC[C@H](C)[C@H](NC(=O)[C@H](CO)NC(=O)[C@H](Cc1ccc(O)cc1)NC(=O)[C@H](CC(=O)O)NC(=O)[C@H](CO)NC(=O)[C@@H](NC(=O)[C@H](Cc1ccccc1)NC(=O)[C@@H](NC(=O)CNC(=O)[C@H](CCC(=O)O)NC(=O)[C@H](C)NC(=O)CCc1ccc(O)cc1)[C@@H](C)O)[C@@H](C)CC)C(=O)N[C@@H](C)C(=O)N[C@@H](CCSC)C(=O)N[C@@H](CC(=O)O)C(=O)N[C@@H](CCCCN)C(=O)N[C@H](C(=O)N[C@@H](Cc1c[nH]cn1)C(=O)N[C@@H](CCC(N)=O)C(=O)N[C@@H](CCC(N)=O)C(=O)N[C@@H](CC(=O)O)C(=O)N[C@@H](Cc1ccccc1)C(=O)N[C@H](C(=O)N[C@@H](CC(N)=O)C(=O)N[C@@H](Cc1c[nH]c2ccccc12)C(=O)N[C@@H](CC(C)C)C(=O)N[C@@H](CC(C)C)C(=O)N[C@@H](C)C(=O)N[C@@H](CCC(N)=O)C(=O)N[C@@H](CCCCN)C(N)=O)C(C)C)[C@@H](C)CC` [Example 7], the midpoint of the response, the EC50, lay at 0.095 nM and the Emax was 103%.

With `CC[C@H](C)[C@H](NC(=O)[C@H](CO)NC(=O)[C@H](Cc1ccc(O)cc1)NC(=O)[C@H](CC(=O)O)NC(=O)[C@H](CO)NC(=O)[C@@H](NC(=O)[C@H](Cc1ccccc1)NC(=O)[C@@H](NC(=O)CNC(=O)[C@H](CCC(=O)O)NC(=O)[C@H](C)NC(=O)[C@@H](Cc1ccccc1)NC(C)=O)[C@@H](C)O)[C@@H](C)CC)C(=O)N[C@@H](C)C(=O)N[C@@H](CCSC)C(=O)N[C@@H](CC(=O)O)C(=O)N[C@@H](CCCCN)C(=O)N[C@H](C(=O)N[C@@H](Cc1c[nH]cn1)C(=O)N[C@@H](CCC(N)=O)C(=O)N[C@@H](CCC(N)=O)C(=O)N[C@@H](CC(=O)O)C(=O)N[C@@H](Cc1ccccc1)C(=O)N[C@H](C(=O)N[C@@H](CC(N)=O)C(=O)N[C@@H](Cc1c[nH]c2ccccc12)C(=O)N[C@@H](CC(C)C)C(=O)N[C@@H](CC(C)C)C(=O)N[C@@H](C)C(=O)N[C@@H](CCC(N)=O)C(=O)N[C@@H](CCCCN)C(N)=O)C(C)C)[C@@H](C)CC` [Example 8], the EC50 came out at 0.685 nM and the Emax came to 102%.

For the compound `CC[C@H](C)[C@H](NC(=O)[C@H](CO)NC(=O)[C@H](Cc1ccc(O)cc1)NC(=O)[C@H](CC(=O)O)NC(=O)[C@H](CO)NC(=O)[C@@H](NC(=O)[C@H](Cc1ccccc1)NC(=O)[C@@H](NC(=O)CNC(=O)[C@H](CCC(=O)O)NC(=O)[C@H](C)NC(=O)CCc1ccccc1)[C@@H](C)O)[C@@H](C)CC)C(=O)N[C@@H](C)C(=O)N[C@@H](CCSC)C(=O)N[C@@H](CC(=O)O)C(=O)N[C@@H](CCCCN)C(=O)N[C@H](C(=O)N[C@@H](Cc1c[nH]cn1)C(=O)N[C@@H](CCC(N)=O)C(=O)N[C@@H](CCC(N)=O)C(=O)N[C@@H](CC(=O)O)C(=O)N[C@@H](Cc1ccccc1)C(=O)N[C@H](C(=O)N[C@@H](CC(N)=O)C(=O)N[C@@H](Cc1c[nH]c2ccccc12)C(=O)N[C@@H](CC(C)C)C(=O)N[C@@H](CC(C)C)C(=O)N[C@@H](C)C(=O)N[C@@H](CCC(N)=O)C(=O)N[C@@H](CCCCN)C(N)=O)C(C)C)[C@@H](C)CC` [Example 9], the response was half-maximal at 0.797 nM (EC50) and the Emax was determined as 101%.

`CC[C@H](C)[C@H](NC(=O)[C@H](CO)NC(=O)[C@H](Cc1ccc(O)cc1)NC(=O)[C@H](CC(=O)O)NC(=O)[C@H](CO)NC(=O)[C@@H](NC(=O)[C@H](Cc1ccccc1)NC(=O)[C@@H](NC(=O)CNC(=O)[C@H](CCC(=O)O)NC(=O)[C@H](C)NC(=O)[C@@H](Cc1c[nH]c2ccccc12)NC(C)=O)[C@@H](C)O)[C@@H](C)CC)C(=O)N[C@@H](C)C(=O)N[C@@H](CCSC)C(=O)N[C@@H](CC(=O)O)C(=O)N[C@@H](CCCCN)C(=O)N[C@H](C(=O)N[C@@H](Cc1c[nH]cn1)C(=O)N[C@@H](CCC(N)=O)C(=O)N[C@@H](CCC(N)=O)C(=O)N[C@@H](CC(=O)O)C(=O)N[C@@H](Cc1ccccc1)C(=O)N[C@H](C(=O)N[C@@H](CC(N)=O)C(=O)N[C@@H](Cc1c[nH]c2ccccc12)C(=O)N[C@@H](CC(C)C)C(=O)N[C@@H](CC(C)C)C(=O)N[C@@H](C)C(=O)N[C@@H](CCC(N)=O)C(=O)N[C@@H](CCCCN)C(N)=O)C(C)C)[C@@H](C)CC` [Example 10]: the EC50 came out at 0.1 nM and the Emax worked out at 102%.

As to `CC[C@H](C)[C@H](NC(=O)[C@H](CO)NC(=O)[C@H](Cc1ccc(O)cc1)NC(=O)[C@H](CC(=O)O)NC(=O)[C@H](CO)NC(=O)[C@@H](NC(=O)[C@H](Cc1ccccc1)NC(=O)[C@@H](NC(=O)CNC(=O)[C@H](CCC(=O)O)NC(=O)[C@H](C)NC(=O)[C@@H](Cc1cccnc1)NC(C)=O)[C@@H](C)O)[C@@H](C)CC)C(=O)N[C@@H](C)C(=O)N[C@@H](CCSC)C(=O)N[C@@H](CC(=O)O)C(=O)N[C@@H](CCCCN)C(=O)N[C@H](C(=O)N[C@@H](Cc1c[nH]cn1)C(=O)N[C@@H](CCC(N)=O)C(=O)N[C@@H](CCC(N)=O)C(=O)N[C@@H](CC(=O)O)C(=O)N[C@@H](Cc1ccccc1)C(=O)N[C@H](C(=O)N[C@@H](CC(N)=O)C(=O)N[C@@H](Cc1c[nH]c2ccccc12)C(=O)N[C@@H](CC(C)C)C(=O)N[C@@H](CC(C)C)C(=O)N[C@@H](C)C(=O)N[C@@H](CCC(N)=O)C(=O)N[C@@H](CCCCN)C(N)=O)C(C)C)[C@@H](C)CC` [Example 11], it took 0.08 nM to reach a half-maximal effect (EC50) and the Emax turned out to be 102%.

Regarding `CC[C@H](C)[C@H](NC(=O)[C@H](CO)NC(=O)[C@H](Cc1ccc(O)cc1)NC(=O)[C@H](CC(=O)O)NC(=O)[C@H](CO)NC(=O)[C@@H](NC(=O)[C@H](Cc1ccccc1)NC(=O)[C@@H](NC(=O)CNC(=O)[C@H](CCC(=O)O)NC(=O)[C@H](C)NC(=O)[C@@H](Cc1ccccc1Cl)NC(C)=O)[C@@H](C)O)[C@@H](C)CC)C(=O)N[C@@H](C)C(=O)N[C@@H](CCSC)C(=O)N[C@@H](CC(=O)O)C(=O)N[C@@H](CCCCN)C(=O)N[C@H](C(=O)N[C@@H](Cc1c[nH]cn1)C(=O)N[C@@H](CCC(N)=O)C(=O)N[C@@H](CCC(N)=O)C(=O)N[C@@H](CC(=O)O)C(=O)N[C@@H](Cc1ccccc1)C(=O)N[C@H](C(=O)N[C@@H](CC(N)=O)C(=O)N[C@@H](Cc1c[nH]c2ccccc12)C(=O)N[C@@H](CC(C)C)C(=O)N[C@@H](CC(C)C)C(=O)N[C@@H](C)C(=O)N[C@@H](CCC(N)=O)C(=O)N[C@@H](CCCCN)C(N)=O)C(C)C)[C@@H](C)CC` [Example 12], the EC50 worked out at 0.121 nM and the Emax was found to be 104%.

In the case of `CC[C@H](C)[C@H](NC(=O)[C@H](CO)NC(=O)[C@H](Cc1ccc(O)cc1)NC(=O)[C@H](CC(=O)O)NC(=O)[C@H](CO)NC(=O)[C@@H](NC(=O)[C@H](Cc1ccccc1)NC(=O)[C@@H](NC(=O)CNC(=O)[C@H](CCC(=O)O)NC(=O)[C@H](C)NC(=O)[C@@H](Cc1cccc(Cl)c1)NC(C)=O)[C@@H](C)O)[C@@H](C)CC)C(=O)N[C@@H](C)C(=O)N[C@@H](CCSC)C(=O)N[C@@H](CC(=O)O)C(=O)N[C@@H](CCCCN)C(=O)N[C@H](C(=O)N[C@@H](Cc1c[nH]cn1)C(=O)N[C@@H](CCC(N)=O)C(=O)N[C@@H](CCC(N)=O)C(=O)N[C@@H](CC(=O)O)C(=O)N[C@@H](Cc1ccccc1)C(=O)N[C@H](C(=O)N[C@@H](CC(N)=O)C(=O)N[C@@H](Cc1c[nH]c2ccccc12)C(=O)N[C@@H](CC(C)C)C(=O)N[C@@H](CC(C)C)C(=O)N[C@@H](C)C(=O)N[C@@H](CCC(N)=O)C(=O)N[C@@H](CCCCN)C(N)=O)C(C)C)[C@@H](C)CC` [Example 13], a half-maximal effect (EC50) was put at 0.072 nM and the Emax was determined as 106%.
